# From PubChem BioAssay AID1959 (Broad Institute, 2009)
# Activity calls are given as the source filed them.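 Rule for the calls: active = growth-inhibition EC50 no more than tenfold above the top tested dose; inconclusive = flat fit between 30% and 70% inhibition, or unreliable fit; inactive = EC50 more than tenfold above the top tested dose.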
# System: E. coli NEB5alpha growth, BacTiter-Glo luminescence, 4 h
# Test: antibacterial activity against E. coli NEB5alpha – luminescence, counter-screen for MEX-5/POS-1 RNA-binding inhibitor project, dose response (AID 1959);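 note: pUC19-transformed ampicillin-resistant cells grown in LB with ampicillin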
row,SMILES,EC50
1,COc1ccc(C2c3ccc(O)cc3Oc3ncn(Cc4ccco4)c(=N)c32)cc1OC (centres undefined),> 11 µM (inactive)
2,COc1ccc(-c2nc(CS(=O)CC(=O)NCc3ccccn3)c(C)o2)cc1 (centres undefined),> 11 µM (inactive)
3,Cc1ccc(Nc2ccc([N+](=O)[O-])ccc2=O)cc1,> 11 µM (inactive)
4,COC(=O)c1ccc(-n2c(C)cc(/C=N/Nc3nc(C)cc(=O)[nH]3)c2C)cc1,> 11 µM (inactive)
5,Cc1cc(=O)[nH]c(N/N=C/c2ccc(O)c(O)c2)n1,> 11 µM (inactive)
6,C=CCOc1cccc(C2C(C(=O)c3ccco3)=C(O)C(=O)N2Cc2ccco2)c1 (centres undefined),> 11 µM (inactive)
7,CC1CN(c2nc3ccccc3nc2C(C#N)C(=O)NC2CCCCC2)CC(C)O1 (centres undefined),> 11 µM (inactive)
8,COC(=O)c1ccc(-n2c(CCC(=O)O)ccc2-c2ccc(C)cc2)cc1,> 11 µM (inactive)
9,COC(=O)c1c(C(=O)OC)c2n(c1C)Cc1ccccc1C2,> 11 µM (inactive)
10,C=Cc1c(C)c2cc3[nH]c(cc4nc(cc5nc(cc1[nH]2)C(C)=C5CCC(=O)O)C(CCC(=O)O)=C4C)c(C)c3C=C,> 11 µM (inactive)
11,NC(=O)Cn1cc(C=C2C(=O)NC(=O)NC2=O)c2ccccc21,> 11 µM (inactive)
12,O=C(O)C1Nc2c(O)cc(Cl)c([N+](=O)[O-])c2C2C=CCC12 (centres undefined),> 11 µM (inactive)
13,CCOc1cccc(N2C(=O)/C(=C/c3ccco3)C(=O)NC2=S)c1,> 11 µM (inactive)
14,CCOc1ccc2nc3cc(NCc4ccc(OC)cc4)ccc3c(N)c2c1,> 11 µM (inactive)
15,COc1cccc(=O)c2c(C)oc(C)c12,> 11 µM (inactive)
16,NC(=O)c1snnc1-c1ccccc1,> 11 µM (inactive)
17,CCCOc1ccc(/C=c2\sc3nc(-c4ccco4)nn3c2=O)cc1OCC,> 11 µM (inactive)
18,N#CC1=C(N)OC2=C(C(=O)CCC2)C1c1ccccc1 (centres undefined),> 11 µM (inactive)
19,COc1ccc(OC)c(S(=O)(=O)NC2CCN(Cc3ccccc3)CC2)c1,> 11 µM (inactive)
20,Cc1cc(/C=N/NC(=O)c2cccc(N(C)C)c2)c(C)n1-c1cc(C(=O)O)cc(C(=O)O)c1,> 11 µM (inactive)
21,COC(=O)Cn1cc(C=C2C(=O)N(C)C(=O)N(C)C2=O)c2ccccc21,> 11 µM (inactive)
22,CC1(C)CC(=O)C2=C(C1)OC(N)=C(C#N)C2c1cc2c(cc1[N+](=O)[O-])OCO2 (centres undefined),> 11 µM (inactive)
23,Cc1ccccc1CSCCNC(=S)Nc1ccccc1,> 11 µM (inactive)
24,O=C(NCC1CCCO1)c1ccc(CS(=O)(=O)Cc2ccc(F)cc2)o1 (centres undefined),> 11 µM (inactive)

row,SMILES,EC50
1,COc1cccc(OCCn2cc(C=O)c3ccccc32)c1,> 11 µM (inactive)
2,COc1cc(NCCCC(C)N)c2ncccc2c1 (centres undefined),> 11 µM (inactive)
3,CCCCN1C(=O)/C(=C2/Sc3ccc(OC)cc3N2CC)SC1=S,> 11 µM (inactive)
4,COc1ccc(NC(=O)CCl)cn1,> 11 µM (inactive)
5,O=C(Cc1nc2ccccc2[nH]c1=O)c1ccccc1,> 11 µM (inactive)
6,COc1ccc(-n2c(NNC(C)=O)nc3sc4c(c3c2=O)CCCC4)cc1,> 11 µM (inactive)
7,CC1=NN(C(N)=S)C(=O)C1N=Nc1c(Cl)cc([N+](=O)[O-])cc1Cl (centres undefined),> 11 µM (inactive)
8,Cc1ccc(C)c(N(C)C(=O)c2coc(=O)c3ccccc23)c1,> 11 µM (inactive)
9,CCOc1cc(/C=C(\C#N)c2nc3ccccc3[nH]2)ccc1OC(C)C(=O)O (centres undefined),> 11 µM (inactive)
10,Cc1ccc2[nH]c3c(c2c1)CN(C(=O)CN1CCN(C(=O)c2ccco2)CC1)CC3,> 11 µM (inactive)
11,Cc1ccc(/C=C2/C(=O)c3ccc(C(=O)O)cc3C2=O)o1,> 11 µM (inactive)
12,Cc1c(Cl)cccc1N1C(=O)NC(=O)/C(=C\c2cc(C)n(-c3cccc(C(=O)O)c3C)c2C)C1=O,> 11 µM (inactive)
13,COc1ccc2c(c1)S/C(=C\C(=O)c1ccncc1)N2C,> 11 µM (inactive)
14,O=C1C2CC=C(Cl)CC2C(=O)N1CC1Cc2ccccc2CO1 (centres undefined),> 11 µM (inactive)
15,O=c1[nH]c2c(s1)C=Nc1ccccc1N2,> 11 µM (inactive)
16,CC(NC(=O)COc1ccccc1)C(=O)OCC(=O)c1cc2ccccc2o1 (centres undefined),> 11 µM (inactive)
17,Cc1c(N=Cc2c(O)n(Cc3ccco3)c(=O)[nH]c2=O)c(=O)n(-c2ccccc2)n1C,> 11 µM (inactive)
18,CC1=CC(C)(C)N2C(=O)C3(C(C#N)=C(N)OC4=C3C(=O)CC(C)(C)C4)c3c(C)c(C)cc1c32 (centres undefined),> 11 µM (inactive)
19,O=C(/C=C/c1ccc(OCCCF)cc1)Nc1ccnc(-c2cccnc2)n1,> 11 µM (inactive)
20,COc1ccc(C2C(C#N)=C(N)OC3=C2C(=O)CC(C)(C)C3)c(OC)c1OC (centres undefined),> 11 µM (inactive)
21,CC1C2(C)OC(=N)C(C#N)(C(C)O2)C1(C#N)C#N (centres undefined),> 11 µM (inactive)
22,Cc1cc(C)c(S(=O)(=O)Nc2cc(SCC(=O)O)c(O)c3ccccc23)cc1C,> 11 µM (inactive)
23,Cn1ncc(Cl)c1C(=O)N/N=C/c1cccc(OC2CSC2)c1,> 11 µM (inactive)
24,Cc1c(CN2CCCCC2)c(O)n(CCCO)c(=O)c1C#N,> 11 µM (inactive)

row,SMILES,EC50
1,CC1=NN(c2ccc(C(=O)O)c(N)c2)C(=O)C1,> 11 µM (inactive)
2,CCN1CCc2c(sc(NC(=O)c3ccc4ccccc4c3)c2C(N)=O)C1,> 11 µM (inactive)
3,Cc1cccc(S(=O)(=O)C(C#N)c2nc3ccccc3nc2N2CCOCC2)c1 (centres undefined),> 11 µM (inactive)
4,CC(=O)c1ccc2c(c1)C1C=CCC1C(c1cc3c(cc1Br)OCO3)N2 (centres undefined),> 11 µM (inactive)
5,CCC(=O)OC1(C)C(=O)C=C2C=C(CCCC(=O)OC)OC=C2C1=O (centres undefined),> 11 µM (inactive)
6,COc1ccccc1OCC(=O)N/N=C/c1c(O)ccc2ccccc12,> 11 µM (inactive)
7,COC(=O)c1cc(C(=O)OC)cc(-n2c(C)cc(C=O)c2C)c1,> 11 µM (inactive)
8,CN1C(=O)C(=Cc2ccc(N3CCCCC3)o2)C(=O)N(C)C1=S,> 11 µM (inactive)
9,CSc1nnc(SCc2nc3sc(C(=O)O)c(C)c3c(=O)[nH]2)s1,> 11 µM (inactive)
10,O=C(OCC(=O)c1ccco1)c1ccc2ncsc2c1,> 11 µM (inactive)
11,O=C(NCC1CCCO1)c1nn2c(C(F)(F)F)cc(-c3cc(Br)cs3)nc2c1Br (centres undefined),> 11 µM (inactive)
12,O=C(Cn1cncn1)N/N=C/c1c2ccccc2cc2ccccc12,> 11 µM (inactive)
13,Cc1ccc(C)n1-c1ccc2c(c1)COC2=O,> 11 µM (inactive)
14,O=C(c1ccc(F)cc1)N1CCN(C2CCC(c3ccccc3)CC2)CC1 (centres undefined),> 11 µM (inactive)
15,COC(=O)c1c(=O)n(O)c2ccc(OC)cc2[n+]1[O-],> 11 µM (inactive)
16,O=C1NC(=O)N(c2ccccc2)C(=O)/C1=C\c1ccc2c3c(cccc13)CC2,> 11 µM (inactive)
17,CC1=CC(C#N)(C#N)C(C#N)(C#N)C(c2ccccc2)N1 (centres undefined),> 11 µM (inactive)
18,O=C(CC1Nc2ccccc2NC1=O)c1ccccc1 (centres undefined),> 11 µM (inactive)
19,COC(=O)c1ccc(COc2ccc(/C=C(\C#N)c3nc4ccccc4[nH]3)cc2OC)o1,> 11 µM (inactive)
20,C1=C(c2ccccc2)Nc2nnnn2C1c1cccs1 (centres undefined),> 11 µM (inactive)
21,Cc1nc2ccccc2c2oc(C(=O)Nc3ccc4c(c3)OCCO4)cc12,> 11 µM (inactive)
22,COc1ccc(C2=CC3=CC(=O)C(C)(O)C(=O)C3=CO2)cc1 (centres undefined),> 11 µM (inactive)
23,COc1ccc(OC)c(N2C(=O)/C(=C/c3ccco3)C(=O)NC2=S)c1,> 11 µM (inactive)
24,Cc1ccc(Sc2ccc(C=C3C(=O)N(C)C(=O)N(C)C3=O)o2)cc1,> 11 µM (inactive)

row,SMILES,EC50
1,CSc1ccc(C2C(C(=O)c3ccco3)=C(O)C(=O)N2c2nnc(SC)s2)cc1 (centres undefined),> 11 µM (inactive)
2,Cc1cccn2c(=O)c3cc(C(=O)NCCN4CCOCC4)c(=N)n(Cc4cccnc4)c3nc12,> 11 µM (inactive)
3,C=CCn1c(=S)[nH]c2nc3c(cc2c1=O)COC(C)(C)C3,> 11 µM (inactive)
4,C=CCOn1c(=O)c(-c2cc3ccccc3o2)[n+]([O-])c2ccccc21,> 11 µM (inactive)
5,O=C(CCl)NCCN1C(=O)S/C(=C\c2cccnc2)C1=O,> 11 µM (inactive)
6,O=C(c1ccccc1)[C@@H]1[C@@H]2C(=O)N(c3ccc(F)cc3)C(=O)[C@@H]2C2CCCN21 (some centres undefined),> 11 µM (inactive)
7,CC(C)C1Nc2ccc(S(N)(=O)=O)cc2C2C=CCC21 (centres undefined),> 11 µM (inactive)
8,CC1(OC(=O)C2CCCC2)C(=O)C=C2C=C(C3CC3)OC=C2C1=O (centres undefined),> 11 µM (inactive)
9,COc1cc(/C=C2\C(=O)NN(c3ccccc3)C2=O)cc([N+](=O)[O-])c1O,> 11 µM (inactive)
10,O=C(CCc1ccc(O)c(O)c1)N/N=C/c1cc2c(cc1[N+](=O)[O-])OCO2,> 11 µM (inactive)
11,CCN(CC)C(=O)CSc1nnc2nnc3cc(Cl)ccc3n12,> 11 µM (inactive)
12,COc1ccccc1N1CC(C(=O)Nc2nnc(SCC(=O)NC(C)C)s2)CC1=O (centres undefined),> 11 µM (inactive)
13,COc1ccc(C2CC(c3cccs3)=NN2c2ccc(C=O)cc2)cc1 (centres undefined),> 11 µM (inactive)
14,COc1ccc(C2C(C#N)=C(/N=C/N3CCN(C)CC3)OC3=C2C(=O)CC(C)(C)C3)cc1 (centres undefined),> 11 µM (inactive)
15,COc1cccc(C(=O)NCC(=O)NNc2ncnc(N)c2[N+](=O)[O-])c1,> 11 µM (inactive)
16,CC1(C)CC(=O)C2=C(C1)OC(N)=C(C#N)C21C(=O)N(CN2CCOCC2)c2ccccc21 (centres undefined),> 11 µM (inactive)
17,Nc1nonc1C(=O)NCCN=Cc1cc(Cc2ccccc2)cc(Br)c1O,> 11 µM (inactive)
18,Cc1[nH][nH]c(=O)c1C(c1cc([N+](=O)[O-])ccc1O)c1c(C)[nH][nH]c1=O,> 11 µM (inactive)
19,C#CCOCCOCCOCCNc1nc(N2CCN(C(=O)[C@H]([C@@H](C)CC)n3cc([C@@H](N)CO)nn3)CC2)nc(N2CCN(C(=O)[C@H]([C@@H](C)CC)n3cc([C@@H](N)CC(C)C)nn3)CC2)n1,> 11 µM (inactive)
20,Cc1ccc(C(=O)Oc2oc(-c3ccccc3)nc2C=Nc2ccc(N(C)C)cc2)cc1,> 11 µM (inactive)
21,CC(=O)C1=C(c2ccccc2)N(C(C)=O)n2c(C)nnc2S1,> 11 µM (inactive)
22,Cc1ccc(-c2nnc(Nc3ccc(CC(N)=O)cc3)c3ccccc23)cc1S(N)(=O)=O,> 11 µM (inactive)
